Results published in patent US5242938A, “Derivatives of virginiamycin M1” (Merck & Co., Inc., priority 1992, dated 1993).
pIC50: −log10 of the molar value. Values after ≈ are worked out from the molar mass of the structure shown. Where two headings read alike, the source gives them in different places.

Experiments:
[1] = biological target: T1, CCK-B (guinea pig cortex) (Cavia porcellus, UniProt H0VZC5); experiment: [125I]BHCCK-8 radioligand binding, guinea pig cortical preparation; settings: read-out: CCK binding inhibition - IC50, [125I]BHCCK
T1 construct: guinea pig cortical preparations; from tissue; host or cells: guinea pig brain cortex membranes
T1 sequence (H0VZC5 1-426): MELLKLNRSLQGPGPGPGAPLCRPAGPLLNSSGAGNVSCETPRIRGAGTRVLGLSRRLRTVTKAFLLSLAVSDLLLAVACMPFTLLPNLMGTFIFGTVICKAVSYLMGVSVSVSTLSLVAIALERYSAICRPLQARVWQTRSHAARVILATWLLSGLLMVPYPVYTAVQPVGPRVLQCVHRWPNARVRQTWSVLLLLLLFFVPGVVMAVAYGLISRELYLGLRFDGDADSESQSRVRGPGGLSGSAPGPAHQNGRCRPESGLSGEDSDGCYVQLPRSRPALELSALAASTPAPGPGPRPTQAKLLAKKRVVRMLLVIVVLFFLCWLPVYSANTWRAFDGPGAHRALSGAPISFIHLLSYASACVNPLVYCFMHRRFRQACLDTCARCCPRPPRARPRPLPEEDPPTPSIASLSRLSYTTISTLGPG
Procedure: (§1) The resulting supernatant was re-spun at 20,000×g for 20 minutes. […] Incubations were for 40 minutes at 4° C. and were terminated by filtration and washing with ice cold 100 mM saline. […] Incubations were for 30 minutes at room temperature and were terminated by filtration over GF/C filters and washing with 100 mM NaCl.

[2] = biological target: T1, CCK-B (guinea pig cortex); experiment: [3H]L-365,260 CCK-B selective antagonist ligand binding, brain membranes; settings: for pIC50: read-out: CCK binding inhibition - IC50, [3H]L-365,260
Procedure: as §1

[3] = biological target: T2, CCK-A (rat pancreas) (Rattus norvegicus, UniProt P30551); experiment: [125I]BHCCK-8 radioligand binding, rat pancreatic preparation; settings: read-out: CCK binding inhibition - IC50, [125I]BHCCK
T2 construct: from tissue; host or cells: rat pancreas
T2 sequence (P30551 1-444): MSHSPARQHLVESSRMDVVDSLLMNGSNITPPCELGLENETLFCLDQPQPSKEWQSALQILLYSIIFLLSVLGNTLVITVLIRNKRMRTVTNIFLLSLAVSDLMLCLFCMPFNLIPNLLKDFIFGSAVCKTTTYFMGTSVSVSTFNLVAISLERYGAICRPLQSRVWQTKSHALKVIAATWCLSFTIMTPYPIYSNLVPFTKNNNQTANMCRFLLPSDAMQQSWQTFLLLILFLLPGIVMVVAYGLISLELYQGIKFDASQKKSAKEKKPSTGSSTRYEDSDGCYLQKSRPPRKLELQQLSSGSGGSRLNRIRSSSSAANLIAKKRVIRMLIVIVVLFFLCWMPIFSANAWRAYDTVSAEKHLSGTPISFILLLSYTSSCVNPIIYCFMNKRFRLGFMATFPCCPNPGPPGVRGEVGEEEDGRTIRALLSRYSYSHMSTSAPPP
Procedure: as §1

[4] = biological target: T2, CCK-A (rat pancreas); experiment: [3H]L-364,718 CCK-A selective antagonist ligand binding, pancreas; settings: read-out: CCK binding inhibition - IC50, [3H]L-364,718
Procedure: as §1

[5] = tested on: Bacillus sp. (Mb 633); experiment: Agar diffusion disc assay, Baci 633; format: cell-based; settings: Bacillus, 18 h, @ 20 g/disc; read-out: Inhibition zone diameter, Baci 633
Procedure: (§2) Cultures employed in evaluating antimicrobial activity included plant pathogens, human and animal opportunistic pathogens and selected laboratory strains having specific-antibiotic sensitivities or chromosomal or R-plasmid-mediated resistances. […] The agar diffusion MIC's were determined using the method described by Barry in Anitbiotics in Laboratory Medicine, 2nd Ed., Ed. V. Lorian, pp. 1-63, William & Wilkins, Baltimore, 1986. Each test compound was dissolved in methanol to a concentration of 1 mg/ml. Serial dilutions of these compounds were also made to determine an agar diffusion MIC. 20 μl of each dilution was pipetted on to 6 mm paper discs, air dried and placed onto the surface of an agar plate seeded with the appropriate bacteria (~10^6 cfu). Seeded agar plates were incubated overnight (~18 hours) at 25° C. Zone sizes were measured to the nearest mm. Each compound was tested in triplicate and the results shown represent the mean.

[6] = tested on: Staphylococcus aureus (Mb 108, ATCC 6538P); experiment: Agar diffusion disc assay, Sta 108; format: cell-based; settings: Staphylococcus aureus, ATCC6538P, 18 h; @ 20 g/disc; read-out: Inhibition zone diameter, Sta 108
Procedure: as §2

[7] = tested on: Bacillus subtilis (Mb 964, ATCC 6633); experiment: Agar diffusion disc assay, Subt 964; format: cell-based; settings: Bacillus subtilis, ATCC6633, 18 h; @ 20 g/disc; read-out: Inhibition zone diameter, Subt 964
Procedure: as §2

[8] = tested on: Micrococcus luteus (Mb 1101, ATCC 9341); experiment: Agar diffusion disc assay, Micr 1101; format: cell-based; settings: Micrococcus luteus; for MIC: read-out: Agar Diffusion MIC versus Micrococcus luteus; for zone of inhibition at 10 µg/disc: 10.0 μg/disc; for zone of inhibition at 40 µg/disc: 40.0 μg/disc; for zone of inhibition at 80 µg/disc: 80.0 μg/disc; for zone of inhibition at 160 µg/disc: 160 μg/disc; for zone of inhibition at 1.25 µg/disc: 1.25 μg/disc; for zone of inhibition at 2.5 µg/disc: 2.50 μg/disc; for zone of inhibition at 5 µg/disc: 5.00 μg/disc
Procedure: as §2

[9] = tested on: Staphylococcus aureus (Mb 2983); experiment: Agar diffusion disc assay, Sta 2983; format: cell-based; settings: Staphylococcus aureus, 18 h; @ 20 g/disc; read-out: Inhibition zone diameter, Sta 2983
Procedure: as §2

[10] = tested on: Corynebacterium pseudodiphtheriticum (Mb 261, ATCC 9742); experiment: Agar diffusion disc assay, Cory 261; format: cell-based; settings: Corynebacterium pseudodiphtheriticum, ATCC9742, 18 h; @ 20 g/disc; read-out: Inhibition zone diameter, Cory 261
Procedure: as §2

[11] = tested on: Streptococcus faecium (Mb 2820); experiment: Agar diffusion disc assay, Str 2820; format: cell-based; settings: Enterococcus faecium, 18 h; @ 20 g/disc; read-out: Inhibition zone diameter, Str 2820
Procedure: as §2

[12] = tested on: Streptococcus agalactiae (Mb 2875); experiment: Agar diffusion disc assay, Str 2875; format: cell-based; settings: Streptococcus agalactiae, 18 h; @ 20 g/disc; read-out: Inhibition zone diameter, Str 2875
Procedure: as §2

[13] = tested on: Salmonella gallinarum (Mb 1287); experiment: Agar diffusion disc assay, Salm 1287; format: cell-based; settings: Salmonella enterica, GALLINARUM, 18 h; @ 20 g/disc; read-out: Inhibition zone diameter, Salm 1287
Procedure: as §2

[14] = tested on: Escherichia coli (Mb 1418); experiment: Agar diffusion disc assay, Coli 1418; format: cell-based; settings: Escherichia coli, 18 h; @ 20 g/disc; read-out: Inhibition zone diameter, Coli 1418
Procedure: as §2

[15] = tested on: Pseudomonas stutzeri (Mb 1231, ATCC 11607); experiment: Agar diffusion disc assay, Pseu 1231; format: cell-based; settings: Stutzerimonas stutzeri, ATCC11607, 18 h; @ 20 g/disc; read-out: Inhibition zone diameter, Pseu 1231
Procedure: as §2

[16] = tested on: En terobacter aergenes (Mb 835); experiment: Agar diffusion disc assay, Ent 835; format: cell-based; settings: 18 h; @ 20 g/disc; read-out: Inhibition zone diameter, Ent 835
Procedure: as §2

[17] = ATCC9341, 18 h, @ 20 g/disc, read-out: Inhibition zone diameter, Micr 1101
[18] = ATCC9341, 25° C., ~18 hours, read-out: Mean of triplicate zone size versus Micrococcus luteus
[19] = ATCC9341, 20.0 μg/disc, 25° C., ~18 hours, read-out: Mean of triplicate zone size versus Micrococcus luteus

| SMILES | pIC50 [1] | A.R. = agonist ratio = IC50([3H]L365,260)/IC50([125I]CCK) [2] | pIC50 [2] | pIC50 [3] | pIC50 [4] | zone of inhibition at 20 µg/disc [5] [mm] | zone of inhibition at 20 µg/disc [6] [mm] | zone of inhibition at 20 µg/disc [7] [mm] | zone of inhibition at 20 µg/disc [8, 17] [mm] | MIC ([8]; ATCC9341, 18 h) [µM] | zone of inhibition at 10 µg/disc [8, 18] [mm] | zone of inhibition at 20 µg/disc [8, 19] [mm] | zone of inhibition at 20 µg/disc [9] [mm] | zone of inhibition at 20 µg/disc [10] [mm] | zone of inhibition at 20 µg/disc [11] [mm] | zone of inhibition at 20 µg/disc [12] [mm] | zone of inhibition at 20 µg/disc [13] [mm] | zone of inhibition at 20 µg/disc [14] [mm] | zone of inhibition at 20 µg/disc [15] [mm] | zone of inhibition at 20 µg/disc [16] [mm] | also measured |
| --- | --- | --- | --- | --- | --- | --- | --- | --- | --- | --- | --- | --- | --- | --- | --- | --- | --- | --- | --- | --- | --- |
| CC1=C\[C@@H](OC(=O)c2ccccc2)CC(=O)Cc2nc(co2)C(=O)N2CCC=C2C(=O)O[C@H](C(C)C)[C@H](C)/C=C/C(=O)NC\C=C\1 [Example 6] | 7.02 | 2 | 6.72 | 5.64 | < 5.52 | 0 | 0 | 0 | 8 | 0.003 (≈ 0.00189 µg/mL) | 10 | 9 | 0 | 0 | 0 | 0 | 0 | 0 | 0 | 0 | zone of inhibition at 40 µg/disc [8, 18]: 10 mm; zone of inhibition at 80 µg/disc [8, 18]: 10 mm; zone of inhibition at 160 µg/disc [8, 18]: 11 mm |
| CNC(=O)O[C@@H]1/C=C(C)/C=C/CNC(=O)/C=C/[C@@H](C)[C@@H](C(C)C)OC(=O)C2=CCCN2C(=O)c2coc(n2)CC(=O)C1 [Example 7] | 6.10 | 19 | < 5.52 | < 5.52 | < 5.52 | 7 | 19 | 0 | 27 | 1.74 (≈ 1.01 µg/mL) | 22 | 25 | 11 | 22 | 10 | 16 | 0 | 0 | 0 | 0 | percentage in parentheses beside >3.0, [3H]L-365,260 (inhibition at top concentration, not defined) ([2]; beside IC50 >3.0): 14%; zone of inhibition at 1.25 µg/disc [8, 18]: 8 mm; zone of inhibition at 2.5 µg/disc [8, 18]: 13 mm; zone of inhibition at 5 µg/disc [8, 18]: 18 mm |
| CC1=C\[C@@H](OC(=O)Nc2ccccc2[N+](=O)[O-])CC(=O)Cc2nc(co2)C(=O)N2CCC=C2C(=O)O[C@H](C(C)C)[C@H](C)/C=C/C(=O)NC\C=C\1 [Example 8] | 6.52 | 10 | 5.51 | < 5.52 | < 5.52 | 0 | 7 | 0 | 16 | 0.019 (≈ 0.0131 µg/mL) | 16 | 16 | 0 | 9 | 0 | 0 | 0 | 0 | 0 | 0 | zone of inhibition at 1.25 µg/disc [8, 18]: 12 mm; zone of inhibition at 2.5 µg/disc [8, 18]: 15 mm; zone of inhibition at 5 µg/disc [8, 18]: 15 mm |
| CC1=C\[C@@H](OC(=O)Nc2cccc([N+](=O)[O-])c2)CC(=O)Cc2nc(co2)C(=O)N2CCC=C2C(=O)O[C@H](C(C)C)[C@H](C)/C=C/C(=O)NC\C=C\1 [Example 9] | 6.40 | 12.9 | 5.28 | < 5.52 | < 5.52 | 0 | 0 | 0 | 8 | 0.82 (≈ 0.566 µg/mL) | 8 | 9 | 0 | 0 | 0 | 0 | 0 | 0 | 0 | 0 | zone of inhibition at 40 µg/disc [8, 18]: 10 mm; zone of inhibition at 80 µg/disc [8, 18]: 11 mm; zone of inhibition at 160 µg/disc [8, 18]: 11 mm |
| CC1=C\[C@@H](OC(=O)Nc2ccc([N+](=O)[O-])cc2)CC(=O)Cc2nc(co2)C(=O)N2CCC=C2C(=O)O[C@H](C(C)C)[C@H](C)/C=C/C(=O)NC\C=C\1 [Example 10] | 5.80 | 8.7 | 4.88 | < 5.52 | < 5.52 | 0 | 9 | 0 | 13 | 3.94 (≈ 2.72 µg/mL) | 10 | 12 | 0 | 9 | 0 | 0 | 0 | 0 | 0 | 0 | zone of inhibition at 5 µg/disc [8, 18]: 7 mm |
